Laboratory results from US20060062823A1, “Microtubule stabilisers for treating stenosis in stents” (priority 2002, published 2006).

Columns and labels:
[1] = (+)-Discodermolide release from polymer coatings in aqueous solution; assay type: physicochemical; details: polylactide glycolide coated stent pieces in PBS pH 7.4 or PEG 400/water 40/60 v/v, 37° C., solutions changed daily; stable = less than 10% of variation of the release rate
Experimental: (§1) A stent (e.g. a Multi-Link Vision stent, Guidant Corp.; or a DRIVER stent, Medtronic Corp.) is weighed and then mounted on a rotating or other support for coating with a polymer or other synthetic or biologic carrier used as a drug reservoir. In an example of an application of one such carrier, while the stent is rotating, a 100 μl aliquot of a solution of polylactide glycolide, 0.75 mg/ml of (+)-discodermolide and 0.0015 mg/ml 2,6-di-tert-butyl-4-methylphenol dissolved in a 50:50 mixture of methanol and tetrahydrofuran, is coated onto it. The coated stent is removed from the support and allowed to air-dry. After a final weighing the amount of coating on the stent is determined.
A.4 (+)-Discodermolide Release from Polymer Coatings in Aqueous Solution
Four 2 cm pieces of coated stents as described above are placed into 100 mL of phosphate buffer solution (PBS) having a pH of 7.4. Another 4 pieces from each series are placed into 100 mL of polyethylene glycol (PEG)/water solution (40/60 v/v, MW of PEG=400). The stent pieces are incubated at 37° C. in a shaker. The buffer and PEG solutions are changed daily and different assays are performed on the solution to determine the released (+)-discodermolide concentrations.

[2] = (+)-Discodermolide release from polymer coatings in plasma; assay type: physicochemical; details: coated stent pieces in citrated human plasma, 37° C., plasma changed daily
Experimental: as §1
A.5 (+)-Discodermolide Release from Polymer Coatings in Plasma
Release of (+)-discodermolide in plasma can also be studied. 1 cm pieces of a coated stent are put into 1 mL of citrated human plasma (from Helena Labs.) in lyophilized form and reconstituted by adding 1 mL of sterile deionized water. Three sets of stent plasma solutions are incubated at 37° C. and the plasma is changed daily. Different assays are performed on the solution to determine the released (+)-discodermolide concentrations.

[3] = tested on: rat carotid artery balloon injury model; assay: Inhibition of late neointimal lesion formation in the 28 day rat carotid artery balloon injury model; assay type: in vivo
rabbit iliac stent model = assay: Inhibition of restenosis at 28 days in the rabbit iliac stent model; assay type: in vivo, New Zealand White rabbit; details: 28 days after stenting, vs placebo
Experimental: A.2 Inhibition of Restenosis at 28 Days in the Rabbit Iliac Stent Model
A combined angioplasty and stenting procedure is performed in New Zealand White rabbit iliac arteries. Iliac artery balloon injury is performed by inflating a 3.0×9.0 mm angioplasty balloon in the mid-portion of the artery followed by “pull-back” of the catheter for 1 balloon length. Balloon injury is repeated 2 times, and a 3.0×12 mm stent is deployed at 6 atm for 30 seconds in the iliac artery. Balloon injury and stent placement is then performed on the contralateral iliac artery in the same manner. A post-stent deployment angiogram is performed. All animals receive oral aspirin 40 mg/day daily as anti-platelet therapy and are fed standard low-cholesterol rabbit chow. Twenty-eight days after stenting, animals are anesthetized and euthanized and the arterial tree is perfused at 100 mmHg with lactated Ringer's for several minutes, then perfused with 10% formalin at 100 mmHg for 15 minutes. The vascular section between the distal aorta and the proximal femoral arteries is excised and cleaned of periadventitial tissue. The stented section of artery is embedded in plastic and sections are taken from the proximal, middle, and distal portions of each stent. All sections are stained with hematoxylin-eosin and Movat pentachrome stains. Computerized planimetry is performed to determine the area of the internal elastic lamina (IEL), external elastic lamina (EEL) and lumen. The neointima and neointimal thickness is measured both at and between the stent struts. The vessel area is measured as the area within the EEL. Data are expressed as mean±SEM. Statistical analysis of the histologic data is accomplished using analysis of variance (ANOVA) due to the fact that two stented arteries are measured per animal with a mean generated per animal. A P<0.05 is considered statistically significant.
An MIA, e.g. a compound of formula 1, e.g. epothilone B is administered orally by gavage at an initial dose one day prior to stenting, then dosed at 50% of the initial dose from the day of stenting until day 27 post-stenting.

[4] = administered locally to the adventitia via catheter/Alzet minipump

Molecule	drug release from coated stents [1]	drug release from coated stents in plasma [2]	infiltration of CD45+ leukocytes ([3]; administered locally to the adventitia adjacent to the ballooned carotid via catheter/Alzet minipump, day 1)	constrictive remodeling [3, 4]	early (9 days post-ballooning) and late (21-31 days post-ballooning) neointimal lesions [3, 4]	CD45-positive leukocyte infiltration into the vessel wall and adventitia ([3]; rats dosed orally, daily, 1 day after balloon injury)	neointimal lesion formation following balloon injury ([3]; rats dosed orally, daily, at 9 and 12 days)	extent of restenotic lesion formation (rabbit iliac stent model; oral gavage from one day prior to stenting until day 27)	lesion formation in the portions of artery immediately proximal and immediately distal to the stent (rabbit iliac stent model; oral gavage)	number of inflammatory cells, especially in the area surrounding the stent struts (rabbit iliac stent model; oral gavage)
(+)-discodermolide	stable (+)-discodermolide release	stable (+)-discodermolide release	–	–	–	–	–	–	–	–
C/C(=C\c1csc(C)n1)[C@@H]1C[C@@H]2O[C@]2(C)CCC[C@H](C)[C@H](O)[C@@H](C)C(=O)C(C)(C)[C@@H](O)CC(=O)O1 [epothilone B]	–	–	potent inhibition	potent inhibition	potent inhibition	significantly reduce	significantly reduce	marked reduction	inhibited	significantly reduced
